In patent EP2527322A1, “Carbamyl alkylphenyl disulfide derivatives and their therapeutic uses” (NOSCIRA, S.A., priority 2011, dated 2012) one finds EC50 data, which are given here for 16 molecules.

SMILES strings stand for the structures. pEC50: −log10 of the molar value.

One assay deals with T1, human recombinant GSK3β (Homo sapiens, UniProt P49841).
T1 construct: 6His (N); purchased Millipore (Billerica, MA, USA)
T1 sequence (P49841 whole entry): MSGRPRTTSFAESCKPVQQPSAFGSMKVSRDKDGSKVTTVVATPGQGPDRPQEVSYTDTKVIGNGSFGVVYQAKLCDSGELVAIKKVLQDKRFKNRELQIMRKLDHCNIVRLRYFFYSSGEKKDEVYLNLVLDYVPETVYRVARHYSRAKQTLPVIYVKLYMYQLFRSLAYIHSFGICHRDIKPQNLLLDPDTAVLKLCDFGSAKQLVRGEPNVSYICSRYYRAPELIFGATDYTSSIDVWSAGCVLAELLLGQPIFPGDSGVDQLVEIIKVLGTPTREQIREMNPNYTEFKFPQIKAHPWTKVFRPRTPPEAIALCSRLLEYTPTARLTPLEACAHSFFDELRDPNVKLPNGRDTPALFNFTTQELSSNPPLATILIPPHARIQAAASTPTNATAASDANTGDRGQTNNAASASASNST
Nature of the assay: GSK-3β enzymatic assay (Z'-LYTE FRET). The format is biochemical. The settings on record: 2 nM enzyme, 12.5 µM ATP, 2 µM substrate peptide, 60 min incubation at room temperature; read-out: GSK3β inhibition average EC50. The procedure: The enzymatic activity of GSK3β was determined with a commercial system based on the Z'-LYTE® technology, available from Invitrogen Life Technologies (Carlsbad, CA, USA), using human recombinant GSK3β (N-terminal 6His-tagged recombinant enzyme with an H350L mutation) from Millipore (Billerica, MA, USA) as the enzyme source. This technology utilizes the fluorescence resonance energy transfer ("FRET") process between fluorescein and coumarin. The assay principle is based on the differential sensitivity of phosphorylated and non-phosphorylated peptide to proteolytic cleavage, which precludes the energy transfer process between the two fluorophores attached to both sides of the cleavage site. […] The assay is performed in 384-well black plates, in a final volume of 10 µl, with 2 nM enzyme concentration in 50 mM Hepes pH 7.5, 50 mM MgCl2, 1 mM EGTA and 0.05% Brij-35, using 12.5 µM ATP and 2 µM substrate peptide. The latter is a synthetic peptide, provided by Invitrogen under the commercial name "Ser/Thr 9 peptide", and it is based upon the sequence of a GSK3β substrate protein (glycogen synthase I) containing Ser-641. The peptide is labeled at both ends with fluorescein and coumarin. The assay is carried out in the presence of different concentrations of the tested compound, at a final 1% (v/v) DMSO concentration. After a 60 min incubation at room temperature, 5 µl of a commercial protease solution (sold by the same vendor in the assay kit) is added and a subsequent 1h incubation at room temperature is performed, before adding 5 µl of a suitable "stop solution", also provided by the vendor in the kit. After that, fluorescence intensity is recorded, monitoring emission at both 445 and 520 nm, upon excitation at 400 nm. An emission ratio is finally calculated, using the quotient among the emission at 445 nm divided by that at 520 nm.
The emission ratio of each tested sample is normalized to that of the control wells, so that for every compound concentration the percentage of inhibition is calculated by using the following equation: %Inhibition = 100⋅(E-S)/(E-B) [formula] wherein "S" is the emission ratio of the sample being considered, "E" is the average emission ratio of wells, including enzyme in the absence of inhibitors, and "B" is the average emission ratio of wells without enzyme. The inhibition values obtained at every compound concentration are finally used to calculate the EC50 of the tested compound, this parameter being the concentration of the compound which causes 50% of inhibition. For that purpose, the data were fitted to a classical 4-parameters isotherm equation using the nonlinear regression function of GraphPad™ Prism 5.0 (GraphPad Software Inc.). Such equation is described below: % Inhibition = L + (H-L)/(1 + (((EC50)/(C)))^n) [formula] wherein "L" is the lower asymptote of the theoretical sigmoidal curve, "H" is the higher asymptote, "C" is the concentration of compound and "n" is the Hill coefficient.
Take `COC(=O)CN(C)C(=O)SSCc1ccccc1` [Compound 1, [Methyl-(4-phenyl-2,3-dithia-butyryl)-amino]-acetic acid methyl ester]: the negative logarithm of the EC50 (pEC50) (commonly −log10 of the EC50, conventionally taken in molar units) was 6.54. The same measure, in the same setting: under `CCOC(=O)CNC(=O)SSCc1ccccc1` [Compound 2, (4-Phenyl-2,3-dithia-butyrylamino)-acetic acid ethyl ester] stands 6.34. On the same count and under the same terms, for `CCOC(=O)[C@H](Cc1ccccc1)NC(=O)SSCc1ccccc1` [Compound 3, (2S) 3-Phenyl-2-(4-phenyl-2,3-dithia-butyrylamino)-propionic acid ethyl ester] the value was 5.41; for `CCOC(=O)[C@H](Cc1ccc(O)cc1)NC(=O)SSCc1ccccc1` [Compound 4, (2S) 3-(4-Hydroxy-phenyl)-2-(4-phenyl-2,3-dithia-butyrylamino)-propionic acid ethyl ester], 5.82.

With `CCOC(=O)[C@H](CC(C)C)NC(=O)SSCc1ccccc1` [Compound 5, (2S) 4-Methyl-2-(4-phenyl-2,3-dithia-butyrylamino)-pentanoic acid ethyl ester], the pEC50 is 4.85.

Consider `CCOC(=O)CCNC(=O)SSCc1ccccc1` [Compound 7, 3-(4-Phenyl-2,3-dithia-butyrylamino)-propionic acid ethyl ester], for which the pEC50 was 6.04. On to `CCOC(=O)CC[C@H](NC(=O)SSCc1ccccc1)C(=O)OCC` [Compound 8, (2S) 2-(4-Phenyl-2,3-dithia-butyrylamino)-pentanedioic acid diethyl ester], for which the pEC50 is 5.17. As to `CCOC(=O)[C@H](C)NC(=O)SSCc1ccccc1` [Compound 9, (2S) 2-(4-Phenyl-2,3-dithia-butyrylamino)-propionic acid ethyl ester], the negative logarithm of the EC50 (pEC50) was 5.27. As for `COC(=O)CC(NC(=O)SSCc1ccccc1)C(=O)OC` (centres unmarked) [Compound 10], the pEC50 is 5.06. The same measure, in the same setting: under `COC(=O)[C@@H](Cc1c[nH]c2ccccc12)NC(=O)SSCc1ccccc1` [Compound 11] stands 5.48; under `CCOC(=O)CN(Cc1ccccc1)C(=O)SSCc1ccccc1` [Compound 12], 6.59; under `CCOC(=O)CN(CC(=O)OCC)C(=O)SSCc1ccccc1` [Compound 13], 6.66.

Regarding `COC(=O)[C@@H]1CCCN1C(=O)SSCc1ccccc1` [Compound 14], the pEC50 is 6.89. On the same count and under the same terms, for `COC(=O)C(Cc1ccccc1)NC(=O)SSCc1ccccc1` (centres unmarked) [Compound 16] the value was 5.89; for `O=C(SSCc1ccccc1)N1C(=O)c2ccccc2C1=O` [Compound 17], 6.33; for `CN(C(=O)SSCc1ccccc1)C(=O)c1ccccc1` [Compound 18], 5.00.

For another assay, the system named is phosphorylation at the Ser-396 residue of Tau protein in human neuroblastoma SH-SY5Y cells. Kind of assay: Cellular assay: Tau Ser-396 phosphorylation by ELISA in SH-SY5Y cells. The settings on record: 18 h incubation at 37°C, 1% (v/v) DMSO, read-out: pSer396-Tau average EC50. The format is cell-based. The protocol: The effect of the compound in cells is determined by monitoring the level of phosphorylation at the Ser-396 residue of Tau protein in human neuroblastoma SH-SY5Y cells. Cells are grown in 96-well plates: 30,000 cells per well in a volume of 100 µl of 1:1 MEM:Ham's F12 medium including 10% (v/v) fetal bovine serum, 100 U/ml penicillin, 100 µg/ml streptomycin and 1% (v/v) 100-fold concentrated commercial stock of non-essential aminoacids (Gibco, Carlsbad, CA, USA), and incubated at 37°C during 24 h. Then, the corresponding amount of test compound is added to the wells to reach the desired concentration in 1% (v/v) DMSO. […] 60 µl of this mixture is then placed in an empty 96-well plate and the levels of Ser-396 phosphorylation are determined using a commercial ELISA kit (Biosource, Carlsbad, CA, USA), following manufacturer's instructions. The levels of phosphorylation are expressed as percentage values, after normalizing them to those in untreated cells and those values are used to calculate EC50s, as described above for GSK-3.
With `COC(=O)CN(C)C(=O)SSCc1ccccc1` [Compound 1, [Methyl-(4-phenyl-2,3-dithia-butyryl)-amino]-acetic acid methyl ester], the pEC50 was 5.38.
